Experimental data: patent US12643905B2, “Spiropyrrolidine derived antiviral agents” (priority 2021, dated 2026)
Like-named read-outs stand apart in the source and are kept apart here.

How the values were obtained:
[1] = test system: 229E human corona virus (hCoV); assay: 229E live virus assay (CPE, ATPlite readout in MRC-5 cells); assay type: cell-based, hCoV-229E; conditions: Human coronavirus 229E, MRC5, 144 h, MOI 0.05, 6 days at 34° C., run in duplicate
[2] = target: SARS-CoV-2 3CL-protease (Severe acute respiratory syndrome coronavirus 2, UniProt P0DTD1); assay: SARS-CoV-2 3C-like (3CL) protease fluorescence assay (FRET); assay type: biochemical; conditions: 30 min preincubation, run in duplicate
[3] = recombinant SARS-CoV-2 3CL-protease 10 nM, read-out: FRET IC50

| SMILES | IC50 [2, 3] [nM] | also measured |
| --- | --- | --- |
| CC(C)C[C@@H](C(=O)N1C[C@]2(C[C@H]1C#N)C(=O)Nc1ccccc12)N(C)C(=O)C(=O)Nc1ccc(F)cc1F [Example 1] | – | EC50 [1]: < 100 nM |
| CC(C)(C)C[C@H](NC(=O)C(=O)NC1CCC1)C(=O)N1C[C@]2(C[C@H]1C#N)C(=O)Nc1ccccc12 [Example 87] | – | EC50 [1]: < 100 nM |
| CC(C)(C)C[C@H](NC(=O)C(=O)NC(C)(C)C)C(=O)N1C[C@]2(C[C@H]1C#N)C(=O)Nc1ccccc12 [Example 95] | – | EC50 [1]: < 100 nM |
| CC(C)(C)C[C@H](NC(=O)C(=O)Nc1ccccc1)C(=O)N1C[C@]2(C[C@H]1C#N)C(=O)Nc1ccccc12 [Example 104] | – | EC50 [1]: < 100 nM |
| CC(C)(C)C[C@H](NC(=O)C(=O)Nc1cnccc1C(F)(F)F)C(=O)N1C[C@]2(C[C@H]1C#N)C(=O)Nc1ccccc12 [Example 156] | < 100 | – |
| CC(C)(C)C[C@H](NC(=O)C(=O)Nc1cncc(C(F)(F)F)c1)C(=O)N1C[C@]2(C[C@H]1C#N)C(=O)Nc1ccccc12 [Example 157] | < 100 | – |
| CC(C)(C)C[C@H](NC(=O)C(=O)Nc1ccc(C(F)(F)F)nc1)C(=O)N1C[C@]2(C[C@H]1C#N)C(=O)Nc1ccccc12 [Example 158] | < 100 | – |
| CC(C)(C)C[C@H](NC(=O)C(=O)Nc1cccnc1C(F)(F)F)C(=O)N1C[C@]2(C[C@H]1C#N)C(=O)Nc1ccccc12 [Example 162] | < 100 | – |
| Cc1cccc(NC(=O)C(=O)N[C@@H](CC(C)(C)C)C(=O)N2C[C@]3(C[C@H]2C#N)C(=O)Nc2ccccc23)n1 [Example 163] | < 100 | – |
| CC(C)(C)C[C@H](NC(=O)C(=O)NC1(C)CCC1)C(=O)N1C[C@]2(C[C@H]1C#N)C(=O)Nc1ccccc12 [Example 164] | < 100 | – |
| CC(C)(C)C[C@H](NC(=O)C(=O)N[C@@H]1CC2CC[C@H](C2)C1)C(=O)N1C[C@]2(C[C@H]1C#N)C(=O)Nc1ccccc12 [Example 165] | < 100 | – |
| CC(C)(C)C[C@H](NC(=O)C(=O)Nc1ccc(C(F)(F)F)cc1C(F)(F)F)C(=O)N1C[C@]2(C[C@H]1C#N)C(=O)Nc1ccccc12 [Example 166] | < 100 | – |
| N#C[C@@H]1C[C@@]2(CN1C(=O)[C@H](CC1CC1)NC(=O)C(=O)Nc1ncccc1C(F)(F)F)C(=O)Nc1ccccc12 [Example 167] | < 100 | – |
| N#C[C@@H]1C[C@@]2(CN1C(=O)[C@H](CC1CC1)NC(=O)C(=O)Nc1cc(C(F)(F)F)ccn1)C(=O)Nc1ccccc12 [Example 168] | < 100 | – |
| N#C[C@@H]1C[C@@]2(CN1C(=O)[C@H](CC1CC1)NC(=O)C(=O)Nc1ccc(C(F)(F)F)cn1)C(=O)Nc1ccccc12 [Example 169] | < 100 | – |
| N#C[C@@H]1C[C@@]2(CN1C(=O)[C@H](CC1CC1)NC(=O)C(=O)Nc1cccc(C(F)(F)F)n1)C(=O)Nc1ccccc12 [Example 170] | < 100 | – |
| N#C[C@@H]1C[C@@]2(CN1C(=O)[C@H](CC1CC1)NC(=O)C(=O)Nc1ccncc1C(F)(F)F)C(=O)Nc1ccccc12 [Example 171] | < 100 | – |
| N#C[C@@H]1C[C@@]2(CN1C(=O)[C@H](CC1CC1)NC(=O)C(=O)Nc1cnccc1C(F)(F)F)C(=O)Nc1ccccc12 [Example 172] | < 100 | – |
| N#C[C@@H]1C[C@@]2(CN1C(=O)[C@H](CC1CC1)NC(=O)C(=O)Nc1cncc(C(F)(F)F)c1)C(=O)Nc1ccccc12 [Example 173] | < 100 | – |
| N#C[C@@H]1C[C@@]2(CN1C(=O)[C@H](CC1CC1)NC(=O)C(=O)Nc1ccc(C(F)(F)F)nc1)C(=O)Nc1ccccc12 [Example 174] | < 100 | – |
| N#C[C@@H]1C[C@@]2(CN1C(=O)[C@H](CC1CC1)NC(=O)C(=O)Nc1cccnc1C(F)(F)F)C(=O)Nc1ccccc12 [Example 175] | < 100 | – |
| N#C[C@@H]1C[C@@]2(CN1C(=O)[C@H](CC1CC1)NC(=O)C(=O)Nc1ccnc(C(F)(F)F)c1)C(=O)Nc1ccccc12 [Example 176] | < 100 | – |

| SMILES | IC50 [2, 3] [nM] | also measured |
| --- | --- | --- |
| CC(C)(C)C[C@H](NC(=O)C(=O)Nc1ccncc1C(F)(F)F)C(=O)N1C[C@]2(C[C@H]1C#N)C(=O)Nc1ccccc12 [Example 177] | < 100 | – |
| CC(C)(C)C[C@H](NC(=O)C(=O)C1CC1)C(=O)N1C[C@]2(C[C@H]1C#N)C(=O)Nc1ccccc12 [Example 178] | 100 to 1000 | – |
| CC(C)(C)C[C@H](NC(=O)C(=O)OC(C)(C)C)C(=O)N1C[C@]2(C[C@H]1C#N)C(=O)Nc1ccccc12 [Example 188] | 100 to 1000 | – |
| CC(C)(C)C[C@H](NC(=O)C(=O)OCc1ccccc1)C(=O)N1C[C@]2(C[C@H]1C#N)C(=O)Nc1ccccc12 [Example 189] | > 1000 | – |
| N#C[C@@H]1C[C@@]2(CN1C(=O)[C@H](CC1CC1)NC(=O)C(=O)Nc1c(Cl)cccc1C(F)(F)F)C(=O)Nc1ccccc12 [Example 194] | < 100 | – |
| CC(C)(C)C[C@H](NC(=O)C(=O)Nc1ccccc1C(F)(F)F)C(=O)N1C[C@]2(C[C@H]1C#N)C(=O)Nc1ccccc12 [Example 195] | < 100 | – |
| CC(C)(C)C[C@H](NC(=O)C(=O)Nc1c(F)cccc1C(F)(F)F)C(=O)N1C[C@]2(C[C@H]1C#N)C(=O)Nc1ccccc12 [Example 196] | < 100 | – |
| CC(C)(C)C[C@H](NC(=O)C(=O)Nc1c(Cl)cccc1C(F)(F)F)C(=O)N1C[C@]2(C[C@H]1C#N)C(=O)Nc1ccccc12 [Example 197] | < 100 | – |
| CN(C(=O)C(=O)Nc1ccc(C(F)(F)F)cc1C(F)(F)F)[C@@H](CC1CC1)C(=O)N1C[C@]2(C[C@H]1C#N)C(=O)Nc1ccccc12 [Example 198] | – | IC50 ([2]; FRET IC50, recombinant SARS-CoV-2 3CL-protease 10 nM): < 100 nM |
| N#C[C@@H]1C[C@@]2(CN1C(=O)[C@H](CC1CC1)NC(=O)C(=O)Nc1ccc(C(F)(F)F)cc1C(F)(F)F)C(=O)Nc1ccccc12 [Example 199] | < 100 | – |
| N#C[C@@H]1C[C@@]2(CN1C(=O)[C@H](CC1CC1)NC(=O)C(=O)Nc1c(F)cccc1C(F)(F)F)C(=O)Nc1ccccc12 [Example 200] | < 100 | – |
| Cc1cccc(C)c1NC(=O)C(=O)N[C@@H](CC(C)C)C(=O)N1C[C@]2(C[C@H]1C#N)C(=O)Nc1ccccc12 [Example 201] | < 100 | – |
| CCCC[C@H](NC(=O)C(=O)Nc1c(C)cccc1C)C(=O)N1C[C@]2(C[C@H]1C#N)C(=O)Nc1ccccc12 [Example 202] | < 100 | – |
| Cc1cccc(C)c1NC(=O)C(=O)N[C@@H](Cc1ccccc1)C(=O)N1C[C@]2(C[C@H]1C#N)C(=O)Nc1ccccc12 [Example 203] | < 100 | – |
| CC(C)(C)C[C@H](NC(=O)C(=O)Nc1c(Cl)cc(F)cc1Cl)C(=O)N1C[C@]2(C[C@H]1C#N)C(=O)Nc1ccccc12 [Example 204] | < 100 | – |
| N#C[C@@H]1C[C@@]2(CN1C(=O)[C@H](CC1CC1)NC(=O)C(=O)Nc1c(Cl)cc(Cl)cc1C(F)(F)F)C(=O)Nc1ccccc12 [Example 205] | < 100 | – |
| N#C[C@@H]1C[C@@]2(CN1C(=O)[C@H](CC1CC1)NC(=O)C(=O)Nc1c(C(F)(F)F)cncc1C(F)(F)F)C(=O)Nc1ccccc12 [Example 206] | < 100 | – |
| CC(C)(C)C[C@H](NC(=O)C(=O)Nc1c(C(F)(F)F)cncc1C(F)(F)F)C(=O)N1C[C@]2(C[C@H]1C#N)C(=O)Nc1ccccc12 [Example 207] | < 100 | – |
| N#C[C@@H]1C[C@@]2(CN1C(=O)[C@H](CC1CC1)NC(=O)C(=O)Nc1c(C(F)(F)F)cccc1C(F)(F)F)C(=O)Nc1ccccc12 [Example 208] | < 100 | – |
| N#C[C@@H]1C[C@@]2(CN1C(=O)[C@H](CC1CC1)NC(=O)C(=O)Nc1c(Cl)cc(F)cc1C(F)(F)F)C(=O)Nc1ccccc12 [Example 209] | < 100 | – |
| CC(C)(C)C[C@H](NC(=O)C(=O)Nc1c(C(F)(F)F)ccc(Cl)c1Cl)C(=O)N1C[C@]2(C[C@H]1C#N)C(=O)Nc1ccccc12 [Example 210] | < 100 | – |
